Source: BigSolDB 2.1

Oc1ccccc1/C=N/CC/N=C/c1ccccc1O
solubility (mole fraction)
Conditions | in dichloromethane | in diethyl ether | in ethanol | in methanol | in n-hexane | in toluene
268.15 K | 0.0352 | 0.00119 | – | – | – | –
273.15 K | 0.0369 | 0.00136 | – | – | – | –
278.15 K | 0.0408 | 0.00165 | 0.00026 | 0.0003 | – | 0.00947
283.15 K | 0.0469 | 0.00193 | 0.00035 | 0.00036 | – | 0.0115
288.15 K | 0.0533 | 0.00232 | 0.00048 | 0.00049 | 0.00084 | 0.014
293.15 K | 0.0605 | 0.00281 | 0.00069 | 0.00064 | 0.00095 | 0.0164
298.15 K | 0.0696 | 0.0035 | 0.0009 | 0.00081 | 0.00112 | 0.0198
303.15 K | 0.0775 | 0.00455 | 0.00112 | 0.00099 | 0.00127 | 0.0256
308.15 K | – | – | 0.00147 | 0.00125 | 0.00143 | 0.0305
313.15 K | – | – | 0.00199 | 0.00155 | 0.00161 | 0.0379
318.15 K | – | – | 0.00252 | 0.00185 | 0.00186 | 0.047
